Results reported in patent US8772343B2, “Chemical compounds” (Pfizer Limited, priority 2010, dated 2014).

Target: T1, Nav1.7 (or SCN9A) channel (Homo sapiens, UniProt Q15858)
T1 construct: expressed in transfected cells
Assay: Nav1.7 PatchXpress automated whole-cell electrophysiology in HEK cells expressing hSCN9A
Type: cell-based
Conditions: estimated IC50 from single point data, PatchXpress assay, held at V1/2 of inactivation, read-out: Nav1.7 EIC50
Protocol: The ability of the compounds of formula (I) to block the Nav1.7 (or SCN9A) channel were measured using the assay described below.
Human Embryonic Kidney (HEK) cells were transfected with an hSCN9A construct using lipofectamine reagent (Invitrogen), using standard techniques. Cells stably expressing the hSCN9A constructs were identified by their resistance to G-418 (400 μg/ml). Clones were screened for expression using the whole-cell voltage-clamp technique.
HEK cells stably transfected with hSCN9A were maintained in DMEM medium supplemented with 10% heat-inactivated fetal bovine serum and 400 μg/ml G-418 in an incubator at 37° C. with a humidified atmosphere of 10% CO2. For HTS, cells were harvested from flasks by trypsinization and replated in an appropriate multi-well plate (typically 96 or 384 wells/plate) such that confluence would be achieved within 24 hours of plating. For electrophysiological studies, cells were removed from the culture flask by brief trypsinization and re-plated at low density onto glass cover slips. Cells were typically used for electrophysiological experiments within 24 to 72 hours after plating.
Cover slips containing HEK cells expressing hSCN9A were placed in a bath on the stage of an inverted microscope and perfused (approximately 1 ml/minutes) with extracellular solution of the following composition: 138 mM NaCl, 2 mM CaCl2, 5.4 mM KCl, 1 mM MgCl2, 10 mM glucose, and 10 mM HEPES, pH 7.4, with NaOH. […] The osmolarity of the extracellular and intracellular solutions was 300 mOsm/kg and 295 mOsm/kg, respectively. All recordings were made at room temperature (22-24° C.) using AXOPATCH 200B amplifiers and PCLAMP software (Axon Instruments, Burlingame, Calif.).
hSCN9A currents in HEK cells were measured using the whole-cell configuration of the patch-clamp technique (Hamill et al., 1981). Uncompensated series resistance was typically 2 to 5 mega ohms and >85% series resistance compensation was routinely achieved. As a result, voltage errors were negligible and no correction was applied. Current records were acquired at 20 to 50 KHz and filtered at 5 to 10 KHz.
HEK cells stably transfected with hSCN9A were viewed under Hoffman contrast optics and placed in front of an array of flow pipes emitting either control or compound-containing extracellular solutions. All compounds were dissolved in dimethyl sulfoxide to make 10 mM stock solutions, which were then diluted into extracellular solution to attain the final concentrations desired. […] The voltage-dependence of inactivation was determined by applying a series of depolarizing prepulses (8 sec long in 10 mV increments) from a negative holding potential. The voltage was then immediately stepped to 0 mV to assess the magnitude of the sodium current. Currents elicited at 0 mV were plotted as a function of prepulse potential to allow estimation of the voltage at which 50% of the channels were inactivated (midpoint of inactivation or V1/2). Compounds were tested for their ability to inhibit hSCN9A sodium channels by activating the channel with a 20 msec voltage step to 0 mV following an 8 second conditioning prepulse to the empirically determined V1/2. Compound effect (% inhibition) was determined by difference in current amplitude before and after application of test compounds. For ease of comparison, “estimated IC-50” (EIC50) values were calculated from single point electrophysiology data by the following equation, (tested concentration, uM)×(100-% inhibition/% inhibition). Inhibition values<20% and >80% were excluded from the calculation.
Electrophysiological assays were conducted with PatchXpress 7000 hardware and associated software (Molecular Devices Corp). All assay buffers and solutions were identical to those used in conventional whole-cell voltage clamp experiments described above. hSCN9A cells were grown as above to 50%-80% confluency and harvested by trypsinization. […]

T1 sequence (Q15858 whole entry): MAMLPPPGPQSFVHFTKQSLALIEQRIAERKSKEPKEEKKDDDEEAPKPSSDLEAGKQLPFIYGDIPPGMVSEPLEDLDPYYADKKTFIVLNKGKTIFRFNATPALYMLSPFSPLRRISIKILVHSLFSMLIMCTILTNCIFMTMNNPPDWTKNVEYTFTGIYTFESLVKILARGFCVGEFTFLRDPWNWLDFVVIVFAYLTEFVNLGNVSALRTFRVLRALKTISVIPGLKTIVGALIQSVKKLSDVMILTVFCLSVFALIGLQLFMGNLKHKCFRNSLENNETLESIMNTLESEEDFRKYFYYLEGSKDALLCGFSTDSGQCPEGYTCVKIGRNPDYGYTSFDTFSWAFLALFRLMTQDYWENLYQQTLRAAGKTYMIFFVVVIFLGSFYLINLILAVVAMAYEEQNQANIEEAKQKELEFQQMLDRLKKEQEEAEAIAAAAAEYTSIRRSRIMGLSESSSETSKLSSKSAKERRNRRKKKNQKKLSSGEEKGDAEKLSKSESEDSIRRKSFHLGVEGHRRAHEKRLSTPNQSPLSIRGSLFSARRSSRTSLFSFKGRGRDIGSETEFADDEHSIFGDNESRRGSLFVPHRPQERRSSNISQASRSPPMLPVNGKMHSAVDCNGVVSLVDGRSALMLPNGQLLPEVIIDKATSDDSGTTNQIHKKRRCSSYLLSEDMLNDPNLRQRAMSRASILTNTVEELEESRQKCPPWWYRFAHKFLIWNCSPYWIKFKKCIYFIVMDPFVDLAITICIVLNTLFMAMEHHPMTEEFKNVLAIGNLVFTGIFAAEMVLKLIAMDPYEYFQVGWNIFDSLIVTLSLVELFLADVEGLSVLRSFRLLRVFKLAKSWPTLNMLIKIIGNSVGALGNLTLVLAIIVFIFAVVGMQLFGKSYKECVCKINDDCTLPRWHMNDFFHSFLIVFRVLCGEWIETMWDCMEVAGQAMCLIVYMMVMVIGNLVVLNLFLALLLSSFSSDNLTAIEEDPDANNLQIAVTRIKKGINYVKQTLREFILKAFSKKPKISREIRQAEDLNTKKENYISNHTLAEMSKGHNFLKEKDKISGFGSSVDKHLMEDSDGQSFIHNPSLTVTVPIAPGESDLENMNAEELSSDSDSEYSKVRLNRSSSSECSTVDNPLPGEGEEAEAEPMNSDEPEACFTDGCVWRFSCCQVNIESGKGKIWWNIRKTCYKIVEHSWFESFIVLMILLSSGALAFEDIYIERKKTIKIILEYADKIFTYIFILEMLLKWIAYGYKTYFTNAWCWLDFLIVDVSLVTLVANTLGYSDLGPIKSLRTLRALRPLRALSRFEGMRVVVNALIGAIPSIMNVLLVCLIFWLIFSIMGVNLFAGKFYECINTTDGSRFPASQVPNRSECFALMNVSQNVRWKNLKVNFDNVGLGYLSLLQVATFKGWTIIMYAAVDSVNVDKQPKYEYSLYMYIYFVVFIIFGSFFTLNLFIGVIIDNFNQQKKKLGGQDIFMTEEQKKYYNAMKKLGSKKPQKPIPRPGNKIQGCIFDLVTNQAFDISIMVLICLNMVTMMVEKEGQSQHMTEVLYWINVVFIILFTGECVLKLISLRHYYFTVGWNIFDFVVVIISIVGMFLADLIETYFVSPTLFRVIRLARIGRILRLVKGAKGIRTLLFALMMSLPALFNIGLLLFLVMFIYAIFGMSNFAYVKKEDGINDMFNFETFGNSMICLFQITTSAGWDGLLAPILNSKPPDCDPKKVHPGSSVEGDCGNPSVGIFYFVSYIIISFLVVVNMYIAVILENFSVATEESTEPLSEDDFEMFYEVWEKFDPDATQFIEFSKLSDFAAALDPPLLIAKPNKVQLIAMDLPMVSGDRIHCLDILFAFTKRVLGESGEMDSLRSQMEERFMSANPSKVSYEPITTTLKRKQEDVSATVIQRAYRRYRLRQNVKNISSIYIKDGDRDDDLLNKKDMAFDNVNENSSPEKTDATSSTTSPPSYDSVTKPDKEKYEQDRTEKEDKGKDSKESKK

| IC50 [nM] | Structure (SMILES) |
| --- | --- |
| 630 | CS(=O)(=O)NC(=O)c1ccc(Oc2ccc(Cl)cc2)c(-c2ccc(C(F)(F)F)cc2)c1 [Example 43, 6-(4-chlorophenoxy)-N-(methylsulfonyl)-4′-(trifluoromethyl)biphenyl-3-carboxamide] |
| 2000 | COc1cc(-c2cc(C(=O)NS(C)(=O)=O)ccc2Oc2ccc(Cl)cc2)ccn1 [Example 45, 4-(4-chlorophenoxy)-3-(2-methoxypyridin-4-yl)-N-(methylsulfonyl)benzamide] |
| 92 | COc1ncccc1-c1cc(C(=O)NS(C)(=O)=O)ccc1Oc1ccc(Cl)cc1 [Example 47, 4-(4-chlorophenoxy)-3-(2-methoxypyridin-3-yl)-N-(methylsulfonyl)benzamide] |
| 9800 | Cn1cc(-c2cc(C(=O)NS(C)(=O)=O)ccc2Oc2ccc(Cl)cc2)cn1 [Example 48, 4-(4-chlorophenoxy)-3-(1-methyl-1H-pyrazol-4-yl)-N-(methylsulfonyl)benzamide] |
| > 3000 | CS(=O)(=O)NC(=O)c1ccc(Oc2ccc(Cl)cc2)c(-c2cnc(N)nc2)c1 [Example 49, 3-(2-aminopyrimidin-5-yl)-4-(4-chlorophenoxy)-N-(methylsulfonyl)benzamide] |
| 730 | COc1ccc(-c2cc(C(=O)NS(C)(=O)=O)ccc2Oc2ccc(Cl)cc2)cc1 [Example 50, 6-(4-chlorophenoxy)-4′-methoxy-N-(methylsulfonyl)-biphenyl-3-carboxamide] |
| 1700 | COc1ncccc1-c1cc(C(=O)NS(C)(=O)=O)ccc1Oc1ccccc1F [Example 51, 4-(2-fluorophenoxy)-3-(2-methoxypyridin-3-yl)-N-(methylsulfonyl)benzamide] |
| 460 | COc1ncccc1-c1cc(C(=O)NS(C)(=O)=O)ccc1Oc1cccc(Cl)c1 [Example 52, 4-(3-chlorophenoxy)-3-(2-methoxypyridin-3-yl)-N-(methylsulfonyl)benzamide] |
| 120 | COc1ncccc1-c1cc(C(=O)NS(C)(=O)=O)ccc1Oc1cc(F)cc(Cl)c1 [Example 53, 4-(3-chloro-5-fluorophenoxy)-3-(2-methoxypyridin-3-yl)-N-(methylsulfonyl)benzamide] |
| 120 | COc1ncccc1-c1cc(C(=O)NS(C)(=O)=O)ccc1Oc1cccc(C(C)C)c1 [Example 54, 4-(3-isopropylphenoxy)-3-(2-methoxypyridin-3-yl)-N-(methylsulfonyl)benzamide] |
| 440 | COc1ncccc1-c1cc(C(=O)NS(C)(=O)=O)ccc1Oc1ccc(F)c(F)c1 [Example 55, 4-(3,4-difluorophenoxy)-3-(2-methoxypyridin-3-yl)-N-(methylsulfonyl)benzamide] |
| 2400 | COc1ncccc1-c1cc(C(=O)NS(C)(=O)=O)ccc1Oc1ccc(C#N)cc1 [Example 56, 4-(4-cyanophenoxy)-3-(2-methoxypyridin-3-yl)-N-(methylsulfonyl)benzamide] |
| 660 | COc1cc(Cl)cc(Oc2ccc(C(=O)NS(C)(=O)=O)cc2-c2cccnc2OC)c1 [Example 57, 4-(3-chloro-5-methoxyphenoxy)-3-(2-methoxypyridin-3-yl)-N-(methylsulfonyl)benzamide] |
| > 1000 | COc1ncccc1-c1cc(C(=O)NS(C)(=O)=O)ccc1Oc1ccccc1OC(F)(F)F [Example 58, 3-(2-methoxypyridin-3-yl)-N-(methylsulfonyl)-4-[2-(trifluoromethoxy)phenoxy]benzamide] |
| 370 | COc1ncccc1-c1cc(C(=O)NS(C)(=O)=O)ccc1Oc1cccc(F)c1 [Example 59, 4-(3-fluorophenoxy)-3-(2-methoxypyridin-3-yl)-N-(methylsulfonyl)benzamide] |
| 18 | CCc1cc(Oc2ccc(C(=O)NS(C)(=O)=O)cc2-c2cccnc2OC)ccc1Cl [Example 60, 4-(4-chloro-3-ethylphenoxy)-3-(2-methoxypyridin-3-yl)-N-(methylsulfonyl)benzamide] |

| IC50 [nM] | Structure (SMILES) |
| --- | --- |
| 66 | COc1ncccc1-c1cc(C(=O)NS(C)(=O)=O)ccc1Oc1cccc(C(F)(F)F)c1 [Example 61, 3-(2-methoxypyridin-3-yl)-N-(methylsulfonyl)-4-[3-(trifluoromethyl)phenoxy]benzamide] |
| 1200 | COCc1ccc(Oc2ccc(C(=O)NS(C)(=O)=O)cc2-c2cccnc2OC)cc1 [Example 62, 4-[4-(methoxymethyl)phenoxy]-3-(2-methoxypyridin-3-yl)-N-(methylsulfonyl)benzamide] |
| 3900 | CCc1ccc(Oc2ccc(C(=O)NS(C)(=O)=O)cc2-c2cccnc2OC)cn1 [Example 63, 4-[(6-ethylpyridin-3-yl)oxy]-3-(2-methoxypyridin-3-yl)-N-(methylsulfonyl)benzamide] |
| 540 | COc1ncccc1-c1cc(C(=O)NS(C)(=O)=O)ccc1Oc1ccc(Cl)cc1F [Example 64, 4-(4-chloro-2-fluorophenoxy)-3-(2-methoxypyridin-3-yl)-N-(methylsulfonyl)benzamide] |
| 640 | COc1ccc(Oc2ccc(C(=O)NS(C)(=O)=O)cc2-c2cccnc2OC)cc1 [Example 65, 4-(4-methoxyphenoxy)-3-(2-methoxypyridin-3-yl)-N-(methylsulfonyl)benzamide] |
| 98 | COc1ncccc1-c1cc(C(=O)NS(C)(=O)=O)ccc1Oc1ccc(Cl)c(F)c1 [Example 66, 4-(4-chloro-3-fluorophenoxy)-3-(2-methoxypyridin-3-yl)-N-(methylsulfonyl)benzamide] |
| 2800 | CCOc1ccccc1Oc1ccc(C(=O)NS(C)(=O)=O)cc1-c1cccnc1OC [Example 67, 4-(2-ethoxyphenoxy)-3-(2-methoxypyridin-3-yl)-N-(methylsulfonyl)benzamide] |
| 83 | COc1ncccc1-c1cc(C(=O)NS(C)(=O)=O)ccc1Oc1cccc(OC(F)(F)F)c1 [Example 68, 3-(2-methoxypyridin-3-yl)-N-(methylsulfonyl)-4-[3-(trifluoromethoxy)phenoxy]benzamide] |
| 440 | COc1ncccc1-c1cc(C(=O)NS(C)(=O)=O)ccc1Oc1cc(F)cc(F)c1 [Example 69, 4-(3,5-difluorophenoxy)-3-(2-methoxypyridin-3-yl)-N-(methylsulfonyl)benzamide] |
| 2200 | COc1ccc(Oc2ccc(C(=O)NS(C)(=O)=O)cc2-c2cccnc2OC)cn1 [Example 70, 3-(2-methoxypyridin-3-yl)-4-[(6-methoxypyridin-3-yl)oxy]-N-(methylsulfonyl)benzamide] |
| 2500 | COc1ncccc1-c1cc(C(=O)NS(C)(=O)=O)ccc1Oc1cccc(C#N)c1 [Example 71, 4-(3-cyanophenoxy)-3-(2-methoxypyridin-3-yl)-N-(methylsulfonyl)benzamide] |
| 100 | COc1ncccc1-c1cc(C(=O)NS(C)(=O)=O)ccc1Oc1cc(F)cc(C(F)(F)F)c1 [Example 72, 4-[3-fluoro-5-(trifluoromethyl)phenoxy]-3-(2-methoxypyridin-3-yl)-N-(methylsulfonyl)benzamide] |
| 170 | COc1ncccc1-c1cc(C(=O)NS(C)(=O)=O)ccc1Oc1ccc(C)cc1 [Example 73, 3-(2-methoxypyridin-3-yl)-4-(4-methylphenoxy)-N-(methylsulfonyl)benzamide] |
| 1900 | COc1ncccc1-c1cc(C(=O)NS(C)(=O)=O)ccc1Oc1cccc(F)c1F [Example 74, 4-(2,3-difluorophenoxy)-3-(2-methoxypyridin-3-yl)-N-(methylsulfonyl)benzamide] |
| 310 | COc1ccc(Oc2ccc(C(=O)NS(C)(=O)=O)cc2-c2cccnc2OC)cc1Cl [Example 75, 4-(3-chloro-4-methoxyphenoxy)-3-(2-methoxypyridin-3-yl)-N-(methylsulfonyl)benzamide] |
| > 1000 | COc1ncccc1-c1cc(C(=O)NS(C)(=O)=O)ccc1Oc1ccc(Cl)cn1 [Example 76, 4-[(5-chloropyridin-2-yl)oxy]-3-(2-methoxypyridin-3-yl)-N-(methylsulfonyl)benzamide] |
